The nature of data set [1]: Solubility comparison in toluene at room temperature. It counts as physicochemical. As to conditions: 50 mg in toluene at room temperature.
A short description of data set [2]: Propylene polymerization with supported metallocene/MAO/SiO2 catalyst. As to conditions: metallocene 0.047 mmol in 30% MAO/toluene (Al/Zr=215) on SiO2; liquid propylene, 60° C., one hour. The method, then:
35.1 mg (0.047 mmol) of (3) were stirred in 2.1 ml of 30% strength MAO solution in toluene (Al/Zr=215) for 60 minutes at room temperature. 2 g of SiO2 (Grace XPO2107, pretreated at 140° C., 10 mbar, 10 hours) were subsequently added and the mixture was stirred for another 10 minutes. The solvent was removed in an oil pump vacuum.
A dry 2 l reactor was flushed firstly with nitrogen and subsequently propylene and charged with 1.5 l of liquid propylene. 2 ml of TEA (20% strength in Varsol) were added and the mixture was stirred for 15 minutes. The catalyst system prepared above (0.886 g) was then resuspended in 20 ml of heptane and injected into reactor and rinsed in using 15 ml of heptane. The reaction mixture was heated to the polymerization temperature of 60° C. and polymerization was carried out for one hour. The polymerization was stopped by venting the remaining propylene. The polymer was dried in a vacuum drying oven. This gave 470 g of polypropylene powder. […] The catalyst activity was 0.53 kg of PP/g of catalyst x h.
27.1 mg (0.047 mmol) of dimethylsilanediylbis(2-methyl-4,5-benzoindenyl)zirconium dichloride were stirred in 2.1 ml of 30% strength MAO solution in toluene (Al/Zr=215) for 60 minutes at room temperature. 2 g of SiO2 (Grace XPO2107, pretreated at 140° C., 10 mbar, 10 hours) were subsequently added and the mixture was stirred for another 10 minutes. […]

Consider `Cc1cc2ccccc2[c-]1[Si](C)(C)[c-]1c(C)cc2ccccc21.[Cl-].[Cl-].[Zr+4]` (racemic) [Rac-Dimethylsilanediylbis(2-methylindenyl)-zirconium Dichloride], for which, in data set [1], the solubility entry is given as “about 2.1 mmol/l”.
As for `CC1=Cc2c(ccc3ccccc23)[C]12[Si](C)(C)[C]1(C(C)=Cc3c1ccc1ccccc31)[Zr]2([Cl])[Cl]` (stereo not drawn) [Rac-Dimethylsilanediylbis(2-methyl-4,5-benzoindenyl)zirconium Dichloride], in data set [1], the solubility result is reported as “about 0.36 mmol/l”. Further, the catalyst activity in data set [2] was 0.46 kg of PP/g of catalyst x h.
On the same counts, the results for `CC1=Cc2c(ccc3ccccc23)[C]12[Si](C)(C)[C]1(C(C)=Cc3c1ccc1ccccc31)[Zr]2([Cl])[O]c1ccc(C(C)(C)C)cc1C(C)(C)C` (stereo not drawn) [compound 3, Pseudo-rac-Dimethylsilanediylbis(2-methyl-4,5-benzo-indenyl)zirconium Monochloride Mono(2,4-di-tert-butylphenoxide)] are above 13 mM and 0.53 kg of PP/g of catalyst x h.
Take `CC1=Cc2ccccc2[C]12[Si](C)(C)[C]1(C(C)=Cc3ccccc31)[Zr]2([Cl])[O]c1ccc(C(C)(C)C)cc1C(C)(C)C` (stereo not drawn) [compound 4, Pseudo-rac-Dimethylsilanediylbis(2-methylindenyl)-zirconium Monochloride Mono(2,4-di-tert-butylphenoxide)]: the solubility in data set [1] is above 15 mM.

The solubility is how much of the substance goes into solution per volume. Read a high solubility as a readily soluble substance.

(Values after patent US6620953B1, “Method for producing monoaryloxy-ansa-metallocenes” (Bassell Polyolefine GmbH, priority 1998, dated 2003).)
